Reference: US11396502B2, “Substituted heterocyclic derivatives as PI3K inhibitors” (Incyte Corporation, priority 2018, dated 2022)
Where a name gives a salt, the structure may show the parent alone. Read-outs that look alike come from different tables or passages of the source.

Legend:
PI3Kγ (p110γ) = PI3Kγ (p110γ) (Homo sapiens (Human), UniProt P48736); assay: PI3K-γ scintillation proximity assay; format: biochemical; details: recombinant human PI3Kγ 13 nM, 20 μM PIP2, 2 μM ATP, 120 min, room temperature
Source text: Example B. PI3K-γ Scintillation Proximity Assay Materials: [γ-^33P]ATP (10 mCi/mL) and Wheat Germ Agglutinin (WGA) YSi SPA Scintillation Beads was purchased from Perkin Elmer (Waltham, Mass.). Lipid kinase substrate, D-myo-Phosphatidylinositol 4,5-bisphosphate (PtdIns(4,5)P2)D (+)-sn-1,2-di-O-octanoylglyceryl, 3-O-phospho linked (PIP2), CAS 204858-53-7, was purchased from Echelon Biosciences (Salt Lake City, Utah). PI3Kγ (p110γ) Recombinant Human Protein was purchased from Life technology (Grand Island, N.Y.). ATP, MgCl2, DTT, EDTA, MOPS and CHAPS were purchased from Sigma Aldrich (St. Louis, Mo.). The kinase reaction was conducted in polystyrene 384-well Greiner Bio-one white plate from Thermo Fisher Scientific in a final volume of 25 μL. Inhibitors were first diluted serially in DMSO and added to the plate wells before the addition of other reaction components. The final concentration of DMSO in the assay was 2%. The PI3Kγ assay was carried out at room temperature in 20 mM MOPS, pH 6.7, 10 mM MgCl2, 5 mM DTT and CHAPS 0.03%. Reactions were initiated by the addition of ATP, the final reaction mixture consisted of 20 μM PIP2, 2 μM ATP, 0.5 μCi [γ-^33P] ATP, 13 nM PI3Kγ. Reactions were incubated for 120 min and terminated by the addition of 40 μL SPA beads suspended in quench buffer: 163 mM potassium phosphate pH 7.8, 20% glycerol, 25 mM EDTA. The final concentration of SPA beads is 1.0 mg/mL. After the plate sealing, plates were shaken overnight at room temperature and centrifuged at 1500 rpm for 10 min, the radioactivity of the product was determined by scintillation counting on Topcount (Perkin-Elmer). IC50 determination was performed by fitting the curve of percent of the solvent control activity versus the log of the inhibitor concentration using the GraphPad Prism 6.0 software.

PI3Kδ (p110δ/p85α) = PI3Kδ (p110δ/p85α) (Homo sapiens (Human), UniProt O00329); assay: PI3Kδ scintillation proximity assay; format: biochemical; details: recombinant human PI3Kδ 3.4 nM, 20 μM PIP2, 2 μM ATP, 120 min, room temperature
Source text: Example C. PI3Kδ Scintillation Proximity Assay Materials: [γ-^33P]ATP (10 mCi/mL) and Wheat Germ Agglutinin (WGA) YSi SPA Scintillation Beads was purchased from Perkin Elmer (Waltham, Mass.). Lipid kinase substrate, D-myo-Phosphatidylinositol 4,5-bisphosphate (PtdIns(4,5)P2)D (+)-sn-1,2-di-O-octanoylglyceryl, 3-O-phospho linked (PIP2), CAS 204858-53-7, was purchased from Echelon Biosciences (Salt Lake City, Utah). PI3Kδ (p110δ/p85α) Recombinant Human Protein was purchased from Eurofins (St Charles, Mo.). ATP, MgCl2, DTT, EDTA, MOPS and CHAPS were purchased from Sigma Aldrich (St. Louis, Mo.). The kinase reaction was conducted in polystyrene 384-well Greiner Bio-one white plate from Thermo Fisher Scientific in a final volume of 25 μL. Inhibitors were first diluted serially in DMSO and added to the plate wells before the addition of other reaction components. The final concentration of DMSO in the assay was 2%. The PI3Kδ assay was carried out at room temperature in 20 mM MOPS, pH 6.7, 10 mM MgCl2, 5 mM DTT and CHAPS 0.03%. Reactions were initiated by the addition of ATP, the final reaction mixture consisted of 20 μM PIP2, 2 μM ATP, 0.5 μCi [γ-^33P] ATP, 3.4 nM PI3Kδ. Reactions were incubated for 120 min and terminated by the addition of 40 μL SPA beads suspended in quench buffer: 163 mM potassium phosphate pH 7.8, 20% glycerol, 25 mM EDTA. The final concentration of SPA beads is 1.0 mg/mL. After the plate sealing, plates were shaken overnight at room temperature and centrifuged at 1500 rpm for 10 min, the radioactivity of the product was determined by scintillation counting on Topcount (PerkinElmer). IC50 determination was performed by fitting the curve of percent of the solvent control activity versus the log of the inhibitor concentration using the GraphPad Prism 6.0 software.

[1] = test system: Phosphorylated Ribosomal Protein S6 (RPS6) in THP-1 cells; assay: THP-1 RPS6 ELISA assay; format: cell-based, Human; details: Homo sapiens
Experimental: Example A. THP-1 RPS6 ELISA Assay
To measure the Phosphorylated Ribosomal Protein S6 (RPS6) in cell lysates, THP-1 cells (Human Acute Monocytic Leukemia) are purchased from ATCC (Manassas, Va.) and maintained in RPMI with 10% FBS (Gibco/Life Technologies, Carlsbad, Calif.). For the assay, THP-1 cells are serum starved overnight in RPMI, then plated in RPMI (2×10^5 cells/well in 90 μL) into 96-well flat-bottom tissue culture treated plates (Corning, Corning, N.Y.), in the presence or absence of a concentration range of test compounds. Covered plates are incubated for 2 hours at 37° C., 5% CO2 then treated with or without 10 nM MCP-1 (MYBioSource, San Diego, Calif.) for 15 minutes at 37° C., 5% CO2. Plates are centrifuged at 1600 RPM and supernatants are removed. Cells are lysed in Lysis Buffer (Cell Signaling, Danvers, Mass.) with Protease Inhibitor (Calbiochem/EMD, Germany), PMSF (Sigma, St Louis Mo.), HALTS (Thermo Fisher, Rockford, Ill.) for 30 min on wet ice. Cell lysates are frozen at −80° C. before testing. The lysates are tested in the Human/Mouse/Rat Phospho-RPS6 ELISA (R&D Systems, Inc. Minn, Minn.). The plate is measured using a microplate reader (SpectraMax M5—Molecular Devices, LLC Sunnyvale, Calif.) set to 450 nm with a wavelength correction of 540. IC50 determination is performed by fitting the curve of inhibitor percent inhibition versus the log of the inhibitor concentration using the GraphPad Prism 5.0 software.

[2] = THP-1, serum starved THP-1 cells, 2 hours compound, 10 nM MCP-1 for 15 minutes, Phospho-RPS6 ELISA, read-out: PI3Kγ_THP1_RPS6_ELISA IC50
[3] = THP-1, read-out: PI3Kγ_THP1_RPS6_ELISA IC50 (nM)

Chain of PI3Kγ (p110γ) (P48736 whole entry): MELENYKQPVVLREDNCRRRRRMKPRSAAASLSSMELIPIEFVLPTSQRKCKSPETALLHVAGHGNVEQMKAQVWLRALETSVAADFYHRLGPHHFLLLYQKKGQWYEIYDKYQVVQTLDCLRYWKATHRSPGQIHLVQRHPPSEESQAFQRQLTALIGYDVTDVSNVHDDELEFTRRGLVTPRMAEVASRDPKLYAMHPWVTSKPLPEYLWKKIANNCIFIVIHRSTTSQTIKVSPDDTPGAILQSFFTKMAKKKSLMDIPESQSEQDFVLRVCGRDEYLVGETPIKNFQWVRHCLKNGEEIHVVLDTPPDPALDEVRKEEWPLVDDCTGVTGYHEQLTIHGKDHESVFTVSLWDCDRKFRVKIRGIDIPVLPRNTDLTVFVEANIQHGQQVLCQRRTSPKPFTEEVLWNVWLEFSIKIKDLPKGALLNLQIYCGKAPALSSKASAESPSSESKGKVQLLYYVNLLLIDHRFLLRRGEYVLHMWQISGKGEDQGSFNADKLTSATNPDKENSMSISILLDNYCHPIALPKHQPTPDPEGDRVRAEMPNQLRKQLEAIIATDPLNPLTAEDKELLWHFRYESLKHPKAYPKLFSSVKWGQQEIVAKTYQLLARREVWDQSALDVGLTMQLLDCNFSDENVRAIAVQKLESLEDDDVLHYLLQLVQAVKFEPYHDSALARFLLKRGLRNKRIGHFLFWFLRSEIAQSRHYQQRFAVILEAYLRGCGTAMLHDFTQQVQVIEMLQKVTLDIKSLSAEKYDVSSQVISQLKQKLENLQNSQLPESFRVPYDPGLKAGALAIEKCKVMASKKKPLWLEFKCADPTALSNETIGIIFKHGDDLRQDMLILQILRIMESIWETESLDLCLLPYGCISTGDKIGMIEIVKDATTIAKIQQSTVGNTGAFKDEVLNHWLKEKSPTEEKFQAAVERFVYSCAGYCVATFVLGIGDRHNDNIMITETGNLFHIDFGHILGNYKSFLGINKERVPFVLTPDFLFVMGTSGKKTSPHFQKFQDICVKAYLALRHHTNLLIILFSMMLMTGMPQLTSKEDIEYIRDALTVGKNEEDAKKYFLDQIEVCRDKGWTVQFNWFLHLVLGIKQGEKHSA
Chain of PI3Kδ (p110δ/p85α) (O00329 whole entry): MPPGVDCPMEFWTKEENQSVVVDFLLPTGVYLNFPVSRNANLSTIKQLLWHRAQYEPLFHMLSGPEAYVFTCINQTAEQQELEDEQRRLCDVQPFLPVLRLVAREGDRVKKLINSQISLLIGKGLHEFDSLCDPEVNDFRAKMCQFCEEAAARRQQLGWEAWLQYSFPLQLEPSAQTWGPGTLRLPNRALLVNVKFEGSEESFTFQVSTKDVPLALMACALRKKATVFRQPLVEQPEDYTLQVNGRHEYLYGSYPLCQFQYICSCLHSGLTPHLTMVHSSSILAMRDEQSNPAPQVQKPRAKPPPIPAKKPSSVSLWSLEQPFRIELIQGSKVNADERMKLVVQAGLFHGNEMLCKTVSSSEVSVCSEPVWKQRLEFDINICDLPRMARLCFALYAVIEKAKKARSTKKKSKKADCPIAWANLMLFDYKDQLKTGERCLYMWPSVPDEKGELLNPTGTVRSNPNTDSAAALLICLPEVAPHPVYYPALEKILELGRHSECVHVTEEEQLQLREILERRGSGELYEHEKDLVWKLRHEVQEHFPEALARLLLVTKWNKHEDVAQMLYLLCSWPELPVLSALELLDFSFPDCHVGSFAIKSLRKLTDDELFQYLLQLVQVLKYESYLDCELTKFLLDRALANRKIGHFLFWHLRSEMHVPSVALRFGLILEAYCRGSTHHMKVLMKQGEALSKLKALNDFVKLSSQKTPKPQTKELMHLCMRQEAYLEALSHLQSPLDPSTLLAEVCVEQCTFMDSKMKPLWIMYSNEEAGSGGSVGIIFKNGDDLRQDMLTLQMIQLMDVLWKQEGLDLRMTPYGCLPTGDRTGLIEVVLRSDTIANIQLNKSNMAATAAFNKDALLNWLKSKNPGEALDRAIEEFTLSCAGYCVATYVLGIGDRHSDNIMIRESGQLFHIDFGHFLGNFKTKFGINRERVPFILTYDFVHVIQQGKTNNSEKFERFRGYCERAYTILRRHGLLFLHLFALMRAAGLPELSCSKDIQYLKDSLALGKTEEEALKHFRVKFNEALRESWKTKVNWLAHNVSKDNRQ
Chain of PI3Kδ (p110δ/p85α) (P27986 whole entry partner): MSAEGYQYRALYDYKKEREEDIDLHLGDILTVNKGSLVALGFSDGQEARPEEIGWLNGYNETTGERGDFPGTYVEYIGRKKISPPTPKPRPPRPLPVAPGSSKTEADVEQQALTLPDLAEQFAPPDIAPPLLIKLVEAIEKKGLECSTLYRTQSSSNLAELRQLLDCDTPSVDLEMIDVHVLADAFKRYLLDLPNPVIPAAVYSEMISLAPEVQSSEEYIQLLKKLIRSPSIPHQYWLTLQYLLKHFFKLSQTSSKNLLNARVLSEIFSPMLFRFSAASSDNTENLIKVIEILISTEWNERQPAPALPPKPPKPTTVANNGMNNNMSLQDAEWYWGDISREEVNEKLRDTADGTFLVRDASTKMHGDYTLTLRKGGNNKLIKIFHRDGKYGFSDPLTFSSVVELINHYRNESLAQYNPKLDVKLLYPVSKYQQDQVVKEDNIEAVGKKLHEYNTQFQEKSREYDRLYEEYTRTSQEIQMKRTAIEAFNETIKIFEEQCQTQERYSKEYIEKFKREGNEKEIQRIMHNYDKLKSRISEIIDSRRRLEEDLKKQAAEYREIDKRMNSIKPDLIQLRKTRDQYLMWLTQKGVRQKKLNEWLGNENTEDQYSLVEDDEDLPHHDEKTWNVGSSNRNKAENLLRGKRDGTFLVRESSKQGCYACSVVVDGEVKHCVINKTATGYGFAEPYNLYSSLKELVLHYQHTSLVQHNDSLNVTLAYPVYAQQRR

IC50 (PI3Kγ (p110γ))	IC50 (PI3Kδ (p110δ/p85α))	IC50 [1, 2]	Structure (SMILES)	IC50 [1, 3]
< 100 nM	500 to 2000 nM	> 1000 nM	Cc1[nH]c(-c2cc(-c3ccc4c(c3)CN([C@@H](C)C3CC3)C4=O)ccn2)nc1C(=O)NC1CCOCC1 [Example 4, (S)-2-(4-(2-(1-Cyclopropylethyl)-1-oxoisoindolin-5-yl)pyridin-2-yl)-5-methyl-N-(tetrahydro-2H-pyran-4-yl)-1H-imidazole-4-carboxamide trifluoroacetate salt]	
< 100 nM	> 2000 nM	> 1000 nM	Cc1[nH]c(-c2cc(-c3ccc4c(c3)CN([C@@H](C)C3CC3)C4=O)ccn2)nc1C(=O)N(C)C [Example 5, (S)-2-(4-(2-(1-Cyclopropylethyl)-1-oxoisoindolin-5-yl)pyridin-2-yl)-N,N,5-trimethyl-1H-imidazole-4-carboxamide trifluoroacetate salt]	
< 100 nM	> 2000 nM	> 1000 nM	CNC(=O)c1nc(-c2cc(-c3ccc4c(c3)CN([C@@H](C)C3CC3)C4=O)ccn2)[nH]c1C [Example 6, (S)-2-(4-(2-(1-Cyclopropylethyl)-1-oxoisoindolin-5-yl)pyridin-2-yl)-N,5-dimethyl-1H-imidazole-4-carboxamide trifluoroacetate salt]	
< 100 nM	500 to 2000 nM	100 to 500 nM	CNC(=O)c1nc(-c2cc(-c3cc4c(c(S(C)(=O)=O)c3)C(=O)N([C@@H](C)C3CC3)C4)ccn2)[nH]c1C [Example 7, (S)-2-(4-(2-(1-Cyclopropylethyl)-7-(methylsulfonyl)-1-oxoisoindolin-5-yl)pyridin-2-yl)-N,4-dimethyl-1H-imidazole-5-carboxamide, trifluoroacetate salt]	
< 100 nM	100 to 500 nM	500 to 1000 nM	Cc1[nH]c(-c2cc(-c3cc4c(c(S(C)(=O)=O)c3)C(=O)N([C@@H](C)C3CC3)C4)ccn2)nc1C(=O)NC1CCOCC1 [Example 7b, (S)-2-(4-(2-(1-Cyclopropylethyl)-7-(methylsulfonyl)-1-oxoisoindolin-5-yl)pyridin-2-yl)-4-methyl-N-(tetrahydro-2H-pyran-4-yl)-1H-imidazole-5-carboxamide, trifluoroacetate salt]	
< 100 nM	100 to 500 nM	> 1000 nM	Cc1[nH]c(-c2cc(-c3cc4c(c(S(C)(=O)=O)c3)C(=O)N([C@@H](C)C3CC3)C4)ccn2)nc1C(=O)NC12CC(C1)C2 [Example 7c, (S)-N-(Bicyclo[1.1.1]pentan-1-yl)-2-(4-(2-(1-cyclopropylethyl)-7-(methylsulfonyl)-1-oxoisoindolin-5-yl)pyridin-2-yl)-4-methyl-1H-imidazole-5-carboxamide, trifluoroacetate salt]	
< 100 nM	100 to 500 nM	100 to 500 nM	Cc1[nH]c(-c2cc(-c3cc4c(c(S(C)(=O)=O)c3)C(=O)N([C@@H](C)C3CC3)C4)ccn2)nc1C(=O)N1CC(F)(F)C1 [Example 7d, (S)-2-(1-Cyclopropylethyl)-5-(2-(5-(3,3-difluoroazetidine-1-carbonyl)-4-methyl-1H-imidazol-2-yl)pyridin-4-yl)-7-(methylsulfonyl)isoindolin-1-one, trifluoroacetate salt]	
< 100 nM	100 to 500 nM	> 1000 nM	Cc1[nH]c(-c2cc(-c3cc4c(c(S(C)(=O)=O)c3)C(=O)N([C@@H](C)C3CC3)C4)ccn2)nc1C(=O)N1CC(O)C1 [Example 7e, (S)-2-(1-Cyclopropylethyl)-5-(2-(5-(3-hydroxyazetidine-1-carbonyl)-4-methyl-1H-imidazol-2-yl)pyridin-4-yl)-7-(methylsulfonyl)isoindolin-1-one, trifluoroacetate salt]	
< 100 nM	< 100 nM	100 to 500 nM	Cc1[nH]c(-c2cc(-c3cc4c(c(S(C)(=O)=O)c3)C(=O)N([C@@H](C)C3CC3)C4)ccn2)nc1C(=O)NC12CCC(C#N)(C1)C2 [Example 7h, (S)-N-(4-Cyanobicyclo[2.1.1]hexan-1-yl)-2-(4-(2-(1-cyclopropylethyl)-7-(methylsulfonyl)-1-oxoisoindolin-5-yl)pyridin-2-yl)-4-methyl-1H-imidazole-5-carboxamide, trifluoroacetate salt]	
< 100 nM	< 100 nM	100 to 500 nM	Cc1[nH]c(-c2cc(-c3cc4c(c(S(C)(=O)=O)c3)C(=O)N([C@@H](C)C3CC3)C4)ccn2)nc1C(=O)NC1CC2(COC2)C1 [Example 7i, (S)-2-(4-(2-(1-Cyclopropylethyl)-7-(methylsulfonyl)-1-oxoisoindolin-5-yl)pyridin-2-yl)-4-methyl-N-(2-oxaspiro[3.3]heptan-6-yl)-1H-imidazole-5-carboxamide, trifluoroacetate salt]	

Structure (SMILES)	IC50 (PI3Kγ (p110γ))	IC50 (PI3Kδ (p110δ/p85α))	IC50 [1, 2]	IC50 [1, 3]
Cc1[nH]c(-c2cc(-c3cc4c(c(S(C)(=O)=O)c3)C(=O)N([C@@H](C)C3CC3)C4)ccn2)nc1C(=O)NC(C)C [Example 7a, (S)-2-(4-(2-(1-Cyclopropylethyl)-7-(methylsulfonyl)-1-oxoisoindolin-5-yl)pyridin-2-yl)-N-isopropyl-4-methyl-1H-imidazole-5-carboxamide, trifluoroacetate salt]	< 100 nM	100 to 500 nM		< 100 nM
Cc1[nH]c(-c2cc(-c3cc4c(c(S(C)(=O)=O)c3)C(=O)N([C@@H](C)C3CC3)C4)ccn2)nc1C(=O)N1CCC1 [Example 7j, (S)-5-(2-(5-(Azetidine-1-carbonyl)-4-methyl-1H-imidazol-2-yl)pyridin-4-yl)-2-(1-cyclopropylethyl)-7-(methylsulfonyl)isoindolin-1-one, trifluoroacetate salt]	< 100 nM	100 to 500 nM		100 to 500 nM
